Results taken from patent US20050074810A1, “Method for non-invasilvely determining the relative levels of two biological substances” (priority 2001, published 2005).
Where two headings read alike, the source gives them in different places.

Conditions: subdermal lactate 1.74 mM, ammonium 1.56 mM
Method: Experiments were performed in specially-designed iontophoresis diffusion cells (Laboratory Glass Apparatus, Berkeley, Calif., USA) as represented in FIG. 7.
The anodal and cathodal chambers contacted the outer surface of the skin and contained the receptor (collection) media, respectively, 80 mM Tris/TrisHCl and 25 mM Tris+34 mM Mops (both buffered to pH 7.4).
Dermatomed pig-ear skin was clamped between the two halves of the iontophoresis cell and each chamber was filled with the appropriate solution.
The sub-dermal chamber was filled with the “donor solution which was perfused continuously at 2-3 mL/hour by means of a peristaltic pump.
A current of 0.4 mA (0.5 mA/cm^2) was passed for a total of 5 hours between the Ag/AgCl electrodes which were inserted into the anodal and cathodal chambers.
Every hour, the entire anode and cathode solutions were withdrawn and the chambers were refilled with fresh buffer.

In the case of `N` [Ammonium, ammonium], the “Deduced transport number (×100)” value (3 h) is reported as 1.36 ± 0.09 ×100, the “K for analyte/internal standard couple, internal standard Na^+” value (3 h) is reported as 1.71 ± 0.09 and the “Deduced transport number (×100)” value (5 h) is reported as 1.44 ± 0.03 ×100. The “K for analyte/internal standard couple, internal standard Na^+” value (5 h) was 1.71 ± 0.01.
